Calls of active or inactive are those of the source. The rule behind the calls is not given here.
Columns and labels:
[1] = test system: Human immunodeficiency virus 1; assay: Antiviral activity against HIV1 NL4-3 infected in human MT4 cells assessed as cytoprotection against virus-induced cytopathic effect after 4 days by cell viability assay; assay type: functional, organism-based; settings: Human immunodeficiency virus 1, NL4-3, MT4, 96 h
PBMC = assay: (§1) Cytotoxicity against human PBMC by cell viability assay; assay type: cell-based
[2] = Therapeutic index, ratio of TC50 for human MT4 cells to EC50 for HIV1 NL43; assay type: cell-based
[3] = Metabolic stability in Sprague-Dawley rat liver microsomes assessed as compound remaining after 40 mins; assay type: ADME, Microsome; settings: read-out: Stability
[4] = test system: Human immunodeficiency virus 1; assay: Antiviral activity against HIV1 3B replication in human PBMC assessed as reverse transcriptase activity after 7 days; assay type: functional, organism-based; settings: for IC50: Human immunodeficiency virus 1, 3B, 168 h
[5] = Therapeutic index, ratio of TC50 for human MT4 cells to IC50 for HIV1 3B; assay type: cell-based
[6] = Metabolic stability in human liver microsomes assessed as compound remaining after 40 mins; assay type: ADME, Microsome; settings: read-out: Stability
[7] = Cytotoxicity against human MT4 cells after 4 days by cell viability assay; assay type: cell-based; settings: read-out: TC50
[8] = as §1; assay type: cell-based; settings: read-out: TC50 (the source's name)
[9] = Cmax in Sprague-Dawley rat at 7.5 mg/kg, po; assay type: ADME, organism-based; design: dose 7.5 mg/kg, route oral; settings: in vivo
[10] = Tmax in Sprague-Dawley rat at 10 mg/kg, po; assay type: ADME, organism-based; design: dose 10 mg/kg, route oral; settings: in vivo
[11] = Oral bioavailability in Sprague-Dawley rat at 7.5 mg/kg; assay type: ADME, organism-based; settings: in vivo
[12] = AUC (0 to infinity) in Sprague-Dawley rat at 7.5 mg/kg, po; assay type: ADME, organism-based; design: time infinity, dose 7.5 mg/kg, route oral; settings: plasma
[13] = Tmax in Sprague-Dawley rat at 7.5 mg/kg, po; assay type: ADME, organism-based; design: dose 7.5 mg/kg, route oral; settings: in vivo
[14] = Cmax in Sprague-Dawley rat at 10 mg/kg, po; assay type: ADME, organism-based; design: dose 10 mg/kg, route oral; settings: in vivo
[15] = Half life in Sprague-Dawley rat at 7.5 mg/kg, po; assay type: ADME, organism-based; design: dose 7.5 mg/kg, route oral; settings: in vivo
[16] = Half life in Sprague-Dawley rat at 10 mg/kg, po; assay type: ADME, organism-based; design: dose 10 mg/kg, route oral; settings: in vivo
[17] = Oral bioavailability in Sprague-Dawley rat at 10 mg/kg; assay type: ADME, organism-based; settings: in vivo
[18] = AUC (0 to infinity) in Sprague-Dawley rat at 10 mg/kg, po; assay type: ADME, organism-based; design: time infinity, dose 10 mg/kg, route oral; settings: plasma
[19] = Half life in Sprague-Dawley rat at 5 mg/kg, po; assay type: ADME, organism-based; design: dose 5 mg/kg, route oral; settings: in vivo
[20] = Cmax in Sprague-Dawley rat at 5 mg/kg, po; assay type: ADME, organism-based; design: dose 5 mg/kg, route oral; settings: in vivo
[21] = Tmax in Sprague-Dawley rat at 5 mg/kg, po; assay type: ADME, organism-based; design: dose 5 mg/kg, route oral; settings: in vivo
[22] = Oral bioavailability in Sprague-Dawley rat at 5 mg/kg; assay type: ADME, organism-based; settings: in vivo
[23] = AUC (0 to infinity) in Sprague-Dawley rat at 5 mg/kg, po; assay type: ADME, organism-based; design: time infinity, dose 5 mg/kg, route oral; settings: plasma

Row | SMILES | EC50 [1] | selectivity ratio [2] | remaining at 40 min [3] | selectivity ratio [5] | remaining at 40 min [6] | CC50 at 96 h [7] | CC50 [8] | IC50 [4] | half-life [19] | Cmax [20] | Tmax [21] | bioavailability [22] | AUC(0-inf) [23] | other results
1 | C=C(C)[C@@H]1CC[C@]2(C(=O)NCc3cccc(OC(F)(F)F)c3)CC[C@]3(C)[C@H](CC[C@@H]4[C@@]5(C)CC[C@H](OC(=O)CC(C)(C)C(=O)O)C(C)(C)[C@@H]5CC[C@]43C)[C@@H]12 | 110 nM | > 400 | 10% | > 400 | 10% | 5200 nM |  |  |  |  |  |  |  | TC50 (PBMC): Not Active; Activity [4]: inactive
2 | C=C(C)[C@@H]1CC[C@]2(C(=O)NCCc3ccccc3C(=O)NCCC(=O)O)CC[C@]3(C)[C@H](CC[C@@H]4[C@@]5(C)CC[C@H](OC(=O)CC(C)(C)C(=O)O)C(C)(C)[C@@H]5CC[C@]43C)[C@@H]12 | 3.1 nM |  | > 40% |  | > 40% | 9600 nM | 11000 nM | 9.4 nM |  |  |  |  |  | Cmax [9]: 860 nM; Tmax [10]: 4 h; bioavailability [11]: 15.5%; AUC(0-inf) [12]: 1650 ng·h/mL; Tmax [13]: 1 h; Cmax [14]: 70 nM; half-life [15]: 4.54 h; half-life [16]: 7.8 h; bioavailability [17]: 1.6%; AUC(0-inf) [18]: 1260 ng·h/mL
3 | C=C(C)[C@@H]1CC[C@]2(C(=O)NCCc3ccc(OC)cc3)CC[C@]3(C)[C@H](CC[C@@H]4[C@@]5(C)CC[C@H](OC(=O)CC(C)(C)C(=O)O)C(C)(C)[C@@H]5CC[C@]43C)[C@@H]12 | 12 nM |  |  |  |  | > 10000 nM | 1000 nM | 60 nM | 4.8 h | 40 nM | 2 h | 1.84% | 245 ng·h/mL | 
4 | C=C(C)[C@@H]1CC[C@]2(C(=O)NCc3ccc(OC(F)(F)F)cc3)CC[C@]3(C)[C@H](CC[C@@H]4[C@@]5(C)CC[C@H](OC(=O)CC(C)(C)C(=O)O)C(C)(C)[C@@H]5CC[C@]43C)[C@@H]12 | 190 nM | > 400 | 10% | > 400 | 10% | 1000 nM |  |  |  |  |  |  |  | TC50 (PBMC): Not Active; Activity [4]: inactive
5 | C=C(C)[C@@H]1CC[C@]2(C(=O)NCc3ccccc3C(=O)O)CC[C@]3(C)[C@H](CC[C@@H]4[C@@]5(C)CC[C@H](OC(=O)CC(C)(C)C(=O)O)C(C)(C)[C@@H]5CC[C@]43C)[C@@H]12 | 6 nM | > 400 | > 60% | > 400 | > 60% | 4500 nM | 9700 nM | 16 nM | 2 h | 580 nM | 3.2 h | 56.4% | 1700 ng·h/mL | 
6 | C=C(C)[C@@H]1CC[C@]2(C(=O)NCc3ccccc3OC)CC[C@]3(C)[C@H](CC[C@@H]4[C@@]5(C)CC[C@H](OC(=O)CC(C)(C)C(=O)O)C(C)(C)[C@@H]5CC[C@]43C)[C@@H]12 | 24 nM | > 400 | 10% | > 400 | 10% | > 10000 nM | > 10000 nM | 7 nM | 2 h | 40 nM | 2 h |  | 114 ng·h/mL | 
7 | C=C(C)[C@@H]1CC[C@]2(C(=O)NCc3ccc(OC)cc3)CC[C@]3(C)[C@H](CC[C@@H]4[C@@]5(C)CC[C@H](OC(=O)CC(C)(C)C(=O)O)C(C)(C)[C@@H]5CC[C@]43C)[C@@H]12 | 26 nM | > 400 | 10% | > 400 | 10% | > 10000 nM | > 10000 nM | 23.5 nM |  |  |  |  |  | 
8 | C=C(C)[C@@H]1CC[C@]2(C(=O)NCc3ccc(F)cc3C(=O)O)CC[C@]3(C)[C@H](CC[C@@H]4[C@@]5(C)CC[C@H](OC(=O)CC(C)(C)C(=O)O)C(C)(C)[C@@H]5CC[C@]43C)[C@@H]12 | 52 nM | > 400 | 10% | > 400 | 10% | 3200 nM | 1500 nM | 4 nM |  |  |  |  |  | 
9 | C=C(C)[C@@H]1CC[C@]2(C(=O)NCc3cccc(OC)c3)CC[C@]3(C)[C@H](CC[C@@H]4[C@@]5(C)CC[C@H](OC(=O)CC(C)(C)C(=O)O)C(C)(C)[C@@H]5CC[C@]43C)[C@@H]12 | 19 nM | > 400 | 10% | > 400 | 10% | > 10000 nM | > 10000 nM | 14 nM |  |  |  |  |  | 
10 | C=C(C)[C@@H]1CC[C@]2(C(=O)NCc3ccc(Cl)cc3)CC[C@]3(C)[C@H](CC[C@@H]4[C@@]5(C)CC[C@H](OC(=O)CC(C)(C)C(=O)O)C(C)(C)[C@@H]5CC[C@]43C)[C@@H]12 | 17.9 nM | > 400 | > 60% | > 400 | > 60% | > 10000 nM | > 10000 nM | 27 nM | 8 h | 270 nM | 2 h | 3.91% | 1340 ng·h/mL | 

Source: ChEMBL document CHEMBL1141017, “Triterpene based compounds with potent anti-maturation activity against HIV-1” (Bioorg Med Chem Lett, 2008)
